The text below walks through data of publication doi:10.1101/2023.11.15.567208 (bioRxiv, 2024).

Assay [1] deals with T1, CGRP receptor (Calcrl and Ramp1) (Mus musculus, UniProt Q9R1W5+Q9WTJ5).
T1 construct: expressed in transfected cells; host or cells: HEK293; Calcrl/Gα15/GCaMP6s by PiggyBac transposase (puromycin), Ramp1 by pSBbi-Neo-cmv-TETo2-RAMP1 IRES-mTagBFP2-NLS (geneticin); doxycycline-induced
As to the kind of experiment: CGRP-sniffer HEK293 cells, calcium (GCaMP6s) dose-response. The format is cell-based. The note with it: selectivity control; HEK293 expressing Calcrl, Ramp1, GCaMP6s and Gα15. The text has this: The copyright holder for this preprint
(1 picture or pasted object on this page, not shown here)

Assay [2] deals with T2, Substance P receptor (NKR1) (Mus musculus, UniProt P30548).
T2 construct: T2A self-cleaving peptide remnant (from the polycistronic P2A-TACR1-T2A cassette) (C); expressed in transfected cells; host or cells: Flp-In T-REx HEK293 (Thermo Fisher Scientific, R78007), lentiviral transduction, hygromycin selection
The experiment in a line: Co-culture of DRG neurons with Substance P-sniffer cells, capsaicin-evoked Substance P release. Format: cell-based. To be noted: exogenous Substance P (10 nM); co-culture with WT or DKO DRG.

For assay [3] the following is noted: ref Hylden and Wilcox, 1981, Malick and Goldstein, 1978, cited from earlier work. An excerpt:
Alternatively, neuropeptides may have opposing effects in different parts of the circuitry meaning global loss of the gene may produce a net effect of no change in a particular behavior.

For assay [4] the following is noted: ref von Euler and Gaddum, 1931 (Substance P); Amara et al., 1982 (CGRPα); cited from earlier work. An excerpt: Among the most challenging diseases to treat is chronic pain. With over 20% of the population suffering from chronic pain, we urgently need to find new analgesic targets ([Nahin et al., 2023]).

T1 sequence (Q9R1W5 23-463): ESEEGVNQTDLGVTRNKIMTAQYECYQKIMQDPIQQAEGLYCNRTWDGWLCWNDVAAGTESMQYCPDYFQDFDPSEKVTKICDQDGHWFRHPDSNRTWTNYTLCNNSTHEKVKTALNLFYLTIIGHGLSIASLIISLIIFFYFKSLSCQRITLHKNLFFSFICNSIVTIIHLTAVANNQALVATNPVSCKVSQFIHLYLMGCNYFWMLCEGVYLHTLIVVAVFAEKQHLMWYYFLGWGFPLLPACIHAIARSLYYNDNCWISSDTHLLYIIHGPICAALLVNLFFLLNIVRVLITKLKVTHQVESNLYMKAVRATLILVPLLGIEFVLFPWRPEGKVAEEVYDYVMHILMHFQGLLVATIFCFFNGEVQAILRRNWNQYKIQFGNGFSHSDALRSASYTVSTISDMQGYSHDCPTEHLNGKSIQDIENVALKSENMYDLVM
T1 sequence (Q9WTJ5 27-148): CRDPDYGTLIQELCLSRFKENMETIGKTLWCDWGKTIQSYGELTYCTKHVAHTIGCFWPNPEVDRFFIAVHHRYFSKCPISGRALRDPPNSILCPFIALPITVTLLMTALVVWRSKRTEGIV
T2 sequence (P30548 whole entry): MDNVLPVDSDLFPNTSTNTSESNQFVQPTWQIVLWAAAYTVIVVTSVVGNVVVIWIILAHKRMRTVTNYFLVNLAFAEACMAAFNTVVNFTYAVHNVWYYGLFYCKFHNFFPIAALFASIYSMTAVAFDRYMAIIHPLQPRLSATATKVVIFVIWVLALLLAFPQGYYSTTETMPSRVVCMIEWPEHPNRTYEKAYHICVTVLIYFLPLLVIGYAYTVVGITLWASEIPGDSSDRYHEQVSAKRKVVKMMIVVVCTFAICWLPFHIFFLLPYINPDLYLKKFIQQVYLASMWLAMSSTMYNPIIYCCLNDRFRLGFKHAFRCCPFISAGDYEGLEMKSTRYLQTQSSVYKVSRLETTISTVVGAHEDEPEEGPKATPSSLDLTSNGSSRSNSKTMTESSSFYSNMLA

Turning to “Substance P: 11-amino acid peptide first discovered as a tissue extract with contractile activity”, the “Sensitivity of CGRP-sniffer cells” value in assay [1] is “insensitive”. In addition, the “Substance P-sniffer activation by exogenous peptide” value in assay [2] is reported as “activates Substance P-sniffers in both conditions”. Further, in assay [3] (in the brain), the “Effect in the brain” value is listed as “analgesic”. Also, the “Effect of infusion into the spinal cord” value in assay [3] (infusion into the spinal cord) is given as “elicits pain”. In addition, the “Contractile or vasodilator activity” value in assay [4] is “contractile activity”.
